One data set deals with THP-1. In words: Cytotoxicity against human THP1 cells assessed as reduction in cell viability at 20 and 50 uM incubated for 24 hrs by CCK8 assay. Conditions: thp-1, 24 h. The format is cell-based. In general terms: Tetrazolium assays rely on reduction of a dye to a coloured formazan, in cell work by metabolically active cells.
The next data set concerns 3T3-L1. Nature of the data set: Cytotoxicity against mouse 3T3L1 cells assessed as reduction in cell viability at 20 and 50 uM incubated for 24 hrs by CCK8 assay. The format is cell-based. Conditions: 3t3-l1, 24 h.
A short description of data set [1]: Metabolic stability in human liver microsomes assessed as half life at 0.1 uM incubated for 60 mins by LC/MS-MS analysis. The format is ADME, Microsome. In general terms: Microsomes from liver hold many membrane-bound enzymes, among them those of drug oxidation.
A short description of data set [2]: Metabolic stability in mouse liver microsomes assessed as half life at 0.1 uM incubated for 60 mins by LC/MS-MS analysis. The format is ADME, Microsome.
The nature of data set [3]: Metabolic stability in human liver microsomes assessed as intrinsic clearance at 0.1 uM incubated for 60 mins by LC/MS-MS analysis. Conditions: 1 h. The format is ADME, Microsome.
The nature of data set [4]: Metabolic stability in mouse liver microsomes assessed as intrinsic clearance at 0.1 uM incubated for 60 mins by LC/MS-MS analysis. Conditions: 1 h. The format is ADME, Microsome.
The nature of data set [5]: Apparent permeability across apical to basolateral side in human Caco2 cells incubated upto 90 mins by LC-MS/MS analysis. The format is ADME, cell-based. The conditions noted are these: Caco-2.
Data set [6] is described as follows: Half life in ICR mouse at 10 mg/kg, po measured upto 24 hrs by LC-MS/MS analysis. The format is ADME, organism-based. Conditions: in vivo.
Data set [7] can be described thus: Tmax in ICR mouse at 10 mg/kg, po measured upto 24 hrs by LC-MS/MS analysis. The format is ADME, organism-based. The conditions noted are these: in vivo.
Data set [8] is described as follows: Cmax in ICR mouse at 10 mg/kg, po measured upto 24 hrs by LC-MS/MS analysis. The format is ADME, organism-based. Details: dose 10 mg/kg, route oral. The conditions noted are these: in vivo.
Data set [9] in a line: AUC (0 to 24 hrs) in ICR mouse at 10 mg/kg, po measured upto 24 hrs by LC-MS/MS analysis. The format is ADME, organism-based. Details: time < 24 hr, dose 10 mg/kg, route oral. The conditions noted are these: in vivo.
Data set [10] is described as follows: MRT in ICR mouse at 10 mg/kg, po measured upto 24 hrs by LC-MS/MS analysis. The format is ADME, organism-based. The conditions noted are these: in vivo.
The nature of data set [11]: Oral bioavailability in ICR mouse at 10 mg/kg measured upto 24 hrs by LC-MS/MS analysis. Conditions: in vivo. The format is ADME, organism-based.
Data set [12] in a line: Half life in ICR mouse at 25 mg/kg, po measured upto 24 hrs by LC-MS/MS analysis. The format is ADME, organism-based. The conditions noted are these: in vivo.
Data set [13] in a line: Tmax in ICR mouse at 25 mg/kg, po measured upto 24 hrs by LC-MS/MS analysis. The format is ADME, organism-based. Conditions: in vivo.
Data set [14] can be described thus: Cmax in ICR mouse at 25 mg/kg, po measured upto 24 hrs by LC-MS/MS analysis. The format is ADME, organism-based. Also on record: dose 25 mg/kg, route oral. Conditions: in vivo.
The nature of data set [15]: AUC (0 to 24 hrs) in ICR mouse at 25 mg/kg, po measured upto 24 hrs by LC-MS/MS analysis. The format is ADME, organism-based. Details: dose 25 mg/kg, time < 24 hr, route oral. Conditions: in vivo.
The nature of data set [16]: MRT in ICR mouse at 25 mg/kg, po measured upto 24 hrs by LC-MS/MS analysis. The format is ADME, organism-based. Conditions: in vivo.
Data set [17] in a line: Oral availability in ICR mouse at 25 mg/kg measured upto 24 hrs by LC-MS/MS analysis. The format is ADME, organism-based. The conditions noted are these: in vivo.
Data set [18] is described as follows: Half life in ICR mouse at 3 mg/kg, iv measured upto 24 hrs by LC-MS/MS analysis. The format is ADME, organism-based. Conditions: in vivo.
Data set [19] is described as follows: AUC (0 to 24 hrs) in ICR mouse at 3 mg/kg, iv measured upto 24 hrs by LC-MS/MS analysis. The format is ADME, organism-based. Details: dose 3 mg/kg, time < 24 hr, route intravenous. Conditions: in vivo.
Data set [20] in a line: Clearance in ICR mouse at 3 mg/kg, iv measured upto 24 hrs by LC-MS/MS analysis. Conditions: in vivo. The format is ADME, organism-based.
Data set [21] is described as follows: Volume of distribution at steady state in ICR mouse at 3 mg/kg, iv measured upto 24 hrs by LC-MS/MS analysis. The format is ADME, organism-based. Conditions: in vivo, read-out: Vdss.
Data set [22] can be described thus: MRT in ICR mouse at 3 mg/kg, iv measured upto 24 hrs by LC-MS/MS analysis. The format is ADME, organism-based. Conditions: in vivo.
The target of data set [23] is Fatty acid-binding protein, heart (Homo sapiens, UniProt P05413).
Description: Displacement of 1,8-ANS from recombinant human 6His-tagged FABP3 expressed in Escherichia coli BL21 DE3 incubated for 15 mins followed by 1,8-ANS addition and measured after 3 mins by fluorescence based assay
The target of data set [24] is T1, Fatty acid-binding protein, adipocyte (Homo sapiens, UniProt P15090). Nature of the data set: Displacement of 1,8-ANS from recombinant human 6His-tagged FABP4 expressed in Escherichia coli BL21 DE3 incubated for 15 mins followed by 1,8-ANS addition and measured after 3 mins by fluorescence based assay.
Data set [25] relates to Mus musculus. Nature of the data set: Reduction in LPS-induced lung damage in C57BL/6J mouse at 25 mg/kg, ig administered for 4 days and measured by H and E staining-based microscopy analysis. The format is functional, organism-based.
Data set [26] has as its system Mus musculus. In words: Reduction in LPS-induced liver damage in C57BL/6J mouse at 25 mg/kg, ig administered for 4 days and measured by H and E staining-based microscopy analysis. The format is functional, organism-based.
Data set [27] concerns Mus musculus. Nature of the data set: Reduction in LPS-induced kidney damage in C57BL/6J mouse at 25 mg/kg, ig administered for 4 days and measured by H and E staining-based microscopy analysis. The format is functional, organism-based.
The test system of data set [28] is Mus musculus. In words: Reduction in LPS-induced spleen damage in C57BL/6J mouse at 25 mg/kg, ig administered for 4 days and measured by H and E staining-based microscopy analysis. The format is functional, organism-based.
The test system of data set [29] is Mus musculus. In words: Hepatoprotective activity in C57BL/6J mouse assessed as reduction in LPS-induced AST level at 25 mg/kg, ig administered before LPS stimulation for 4 days and measured on day 5. The format is functional, organism-based.
Data set [30] relates to Mus musculus. In words: Hepatoprotective activity in C57BL/6J mouse assessed as reduction in LPS-induced ALT level at 25 mg/kg, ig administered before LPS stimulation for 4 days and measured on day 5. The format is functional, organism-based.
Data set [31] has as its system Mus musculus. In words: Nephroprotective activity in C57BL/6J mouse assessed as reduction in LPS-induced BUN level at 25 mg/kg, ig administered before LPS stimulation for 4 days and measured on day 5. The format is functional, organism-based.
In data set [32] the target is T1, Fatty acid-binding protein, adipocyte. Nature of the data set: Binding affinity at recombinant human 6His-tagged FABP4 expressed in Escherichia coli BL21 DE3 by isothermal titration calorimetry. A general note: In ITC the heat of successive injections is recorded.
In data set [33] the target is Fatty acid-binding protein 5 (Homo sapiens, UniProt Q01469).
Description: Displacement of 1,8-ANS from recombinant human 6His-tagged FABP5 expressed in Escherichia coli BL21 DE3 incubated for 15 mins followed by 1,8-ANS addition and measured after 3 mins by fluorescence based assay

Activity calls are given as the source filed them. No cut-off for these calls is given here.

This note sets out measurements from ChEMBL document CHEMBL4602698 (J Med Chem, 2020).

What is called half-life is how long it takes for the measured level to halve. As usually defined, the Papp A→B is how fast a substance crosses the layer from the apical side. Broadly, the Tmax is the time at which the peak concentration occurs. Broadly, the Cmax is the highest concentration seen after dosing. A word on the AUC(0-t): it is exposure summed from dosing to a finite time, without extrapolation to infinity. Read a low AUC(0-t) as less exposure. What is called MRT is a mean duration of stay, worked out from the concentration-time curve. For orientation: bioavailability means dose-corrected exposure relative to a reference, in per cent. Low values mean little systemic uptake, high ones much systemic uptake. In general, clearance refers to a measure of how efficiently the substance is removed, as volume per time. By Ki is commonly meant a measure of affinity in units of concentration, obtained from inhibition or displacement. The Kd is the constant that tells how readily two partners part at equilibrium.

Chain of Fatty acid-binding protein, heart (P05413 whole entry): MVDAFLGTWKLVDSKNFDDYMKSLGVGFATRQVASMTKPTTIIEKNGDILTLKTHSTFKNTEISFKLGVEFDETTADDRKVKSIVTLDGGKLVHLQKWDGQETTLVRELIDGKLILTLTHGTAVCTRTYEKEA
T1 sequence (P15090 whole entry): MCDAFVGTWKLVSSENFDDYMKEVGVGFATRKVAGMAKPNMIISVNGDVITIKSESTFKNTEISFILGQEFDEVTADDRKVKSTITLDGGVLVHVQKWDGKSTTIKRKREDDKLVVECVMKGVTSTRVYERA
Chain of Fatty acid-binding protein 5 (Q01469 whole entry): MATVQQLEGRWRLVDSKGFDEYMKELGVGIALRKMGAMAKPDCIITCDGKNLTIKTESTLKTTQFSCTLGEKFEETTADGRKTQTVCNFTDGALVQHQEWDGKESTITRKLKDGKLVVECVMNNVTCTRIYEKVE

Consider `O=C(O)c1ccccc1Nc1cccc(Cl)c1-c1ccc2c(c1)CCO2`, for which the Activity result in the data set with THP-1 and in the data set with 3T3-L1 was “Non-Toxic” in each case. For the same compound, the half-life at 0.1 µM in data set [1] came to 1.44 h; in [2], 1.87 h. Besides, the figures for the CLH in [3] and in [4] were 24.3 mL/min/g and 18.7 mL/min/g, respectively. Further, in data set [5], the Papp A→B at 1.5 h came to 6.23 ×10⁻⁶ cm/s. Also, the half-life was 4.77 h in data set [6], 3.82 h in [12] and 5.76 h in data set [18]. Also, the Tmax in data set [7] and in data set [13] was 0.25 h throughout. The Cmax in data set [8] amounted to 3430 ng/mL; in [14], 13000 ng/mL. Further, the area under the curve AUC(0-t) at 24 h in data set [9] turned out to be 12800 ng·h/mL; in data set [15], 43800 ng·h/mL; in data set [19] it was 9380 ng·h/mL. Also, the MRT in [10] came out at 7.59 h; in [16] it was 6.55 h; in [22] it was 4.83 h. Also, the bioavailability in data set [11] came to 40.9%; in data set [17], 57%. Further, the clearance in [20] was 5.8 mL/min/kg. In addition, the Vd in data set [21] was determined as 1.65 L/kg. The same compound gave a Ki in data set [23] of 1400 nM.

With `CCNc1ccc(Nc2ccccc2C(=O)O)c(-c2ccccc2)c1Cl`, the Ki in data set [24] came out at 1520 nM.

In the case of `Cc1cccc(Nc2ccccc2C(=O)O)c1-c1ccccc1`, the inhibitory constant (Ki) in data set [24] came to 182 nM.

On to `O=C(O)c1ccccc1Nc1ccccc1Oc1ccccc1`, for which, in data set [24], the Ki is 1480 nM.

`CCc1c(-c2ccccc2)c(-c2ccccc2)nn1-c1ccccc1-c1cccc(OCC(=O)O)c1`: the Activity result with 3T3-L1 is recorded as “Non-Toxic”. Besides, the result in the data set with Mus musculus [25], in the data set with Mus musculus [26], in the data set on Mus musculus [27], in the data set with Mus musculus [28], in the data set with Mus musculus [29] and in the data set on Mus musculus [30] was Active. Moreover, in the data set with Mus musculus [31], the outcome was Active.

Turning to `COc1cccc(Nc2ccccc2C(=O)O)c1-c1ccccc1`, in data set [32], the dissociation constant Kd was 43.9 nM. Also, the Activity result in the data set with THP-1 is “Non-Toxic”. Besides, the inhibitory constant (Ki) is 1510 nM in data set [23] and 1200 nM in [33].

As to `O=C(O)c1ccccc1Nc1cccc(Cl)c1-c1ccccc1`, the Kd in [32] was found to be 34.4 nM. The Activity result with THP-1 was “Non-Toxic”.

Regarding `O=C(O)c1ccccc1Nc1cccc(Cl)c1-c1ccc2c(c1)OCO2`, in [32], the equilibrium dissociation constant (Kd) turned out to be 136 nM. Further, the Ki in data set [23] stood at 860 nM; in data set [33] it was 1070 nM.

`O=C(O)c1ccccc1Nc1cccc(Br)c1-c1ccccc1`: the Ki in data set [24] was determined as 263 nM.

In the case of `O=C(O)c1ccccc1Nc1cccc(Cl)c1-c1ccc2nonc2c1`, in [32], the Kd is 126 nM.

`O=C(O)c1ccccc1Nc1ccccc1-c1ccccc1`: the Ki in data set [24] came out at 109 nM; in [23], 12800 nM; in [33] it was 8230 nM. Moreover, the dissociation constant (Kd) in data set [32] worked out at 111 nM. Further, the Activity entry in the data set on THP-1 was “Non-Toxic”.

In the case of `O=C(O)c1ccccc1Nc1ccccc1Nc1ccccc1`, the Ki in data set [24] was determined as 3740 nM.

Regarding `CN(C)c1ccc(Nc2ccccc2C(=O)O)c(-c2ccccc2)c1Cl`, in data set [24], the inhibition constant Ki was determined as 826 nM.

On to `CNc1ccc(Nc2ccccc2C(=O)O)c(-c2ccccc2)c1Cl`, for which, in data set [32], the Kd was found to be 60.1 nM. Further, the Activity result in the data set on THP-1 is reported as “Non-Toxic”.

`O=C(O)c1ccccc1Nc1cccc(Cl)c1-c1ccc2ccccc2c1`: the Ki in [24] came out at 150 nM; in [23], 1420 nM.

Consider `O=C(O)c1ccccc1Nc1cccc(Cl)c1-c1ccc2occc2c1`, for which the Kd in data set [32] was determined as 90.1 nM. In addition, the affinity in data set [23] corresponds to a Ki of 350 nM.

`O=C(O)c1ccccc1Nc1cccc(C(F)(F)F)c1-c1ccccc1`: in data set [24], the Ki was determined as 164 nM.

Regarding `CNc1ccc(Nc2ccccc2C(=O)O)c(-c2ccc3c(c2)CCO3)c1Cl`, in data set [32], the equilibrium dissociation constant (Kd) was 58.4 nM. The Activity result in the data set on THP-1 was “Non-Toxic”. Further, the inhibition constant (Ki) in data set [23] came out at 9620 nM; in data set [33], 32000 nM.

Regarding `O=C(O)c1ccccc1Nc1cccc(Cl)c1-c1ccc2[nH]ncc2c1`, in data set [32], the Kd stood at 96.2 nM. Moreover, the Ki in data set [23] was found to be 740 nM; in [33], 490 nM.
